Key:
MT1-MMP [1] = target: T1, MT1-MMP (Homo sapiens, UniProt P50281); test: fluorescence polarisation competition experiments (affinity to MT1-MMP); assay type: binding; conditions: tris-sulfone version, Figure 2
Experimental: Subsequently, the affinity to the MT1-MMP target was measured by fluorescence polarisation competition experiments for 17-69-07-N241, and its sulfone versions (Figure 2).

MT1-MMP [2] = target: T1, MT1-MMP; test: selectivity / cross-reactivity against other MMPs; assay type: binding; conditions: does not cross-react with MMP-1, MMP-2, MMP-15 and MMP-16

Molecule	Kd (MT1-MMP [1]) [µM]	selectivity for MT1-MMP (MT1-MMP [2])
C[C@H](NC(=O)CN(C)C(=O)CN(C)C(=O)CN(C)C(=O)CN(C)C(=O)CN(C)C(=O)CN(C)C(=O)CN(C)C(=O)CN(C)C(=O)CN(C)C(=O)CN(C)C(=O)CCN)C(=O)N[C@H]1CS(=O)(=O)Cc2cc3cc(c2)CS(=O)(=O)C[C@H](NC(=O)[C@@H](C)NC(=O)[C@H](Cc2cccc4ccccc24)NC(=O)[C@H](CCC(=O)O)NC(=O)[C@H](CC(N)=O)NC(=O)[C@@H](C)NC1=O)C(=O)N[C@@H](CCC(=O)O)C(=O)N[C@@H](CC(=O)O)C(=O)N[C@@H](Cc1ccccc1)C(=O)N[C@@H](Cc1ccc(O)cc1)C(=O)N[C@@H](CC(=O)O)C(=O)N[C@@H](C(C)(C)C)C(=O)N[C@H](C(N)=O)CS(=O)(=O)C3 [17-69-07-N338]	~0.01	–
-Ci-Y-N-E-F-G-Cii-E-D-F-Y-D-I-Ciii- [17-69-07]	–	uniquely selective for MT1-MMP

Reference: patent EP3192802A1, “STABILIZED PEPTIDE DERIVATIVES” (Bicycle Therapeutics Limited, priority 2016, dated 2017)
